Test results taken from ChEMBL document CHEMBL1141388, “2-Cyano-pyrimidines: a new chemotype for inhibitors of the cysteine protease cathepsin K” (J Med Chem, 2007).
pIC50: −log10 of the molar value.

Experiments:
Cathepsin K = molecular target: T1, Cathepsin K (Homo sapiens, UniProt P43235); assay: Inhibition of human recombinant cathepsin K
T1 sequence (P43235 whole entry): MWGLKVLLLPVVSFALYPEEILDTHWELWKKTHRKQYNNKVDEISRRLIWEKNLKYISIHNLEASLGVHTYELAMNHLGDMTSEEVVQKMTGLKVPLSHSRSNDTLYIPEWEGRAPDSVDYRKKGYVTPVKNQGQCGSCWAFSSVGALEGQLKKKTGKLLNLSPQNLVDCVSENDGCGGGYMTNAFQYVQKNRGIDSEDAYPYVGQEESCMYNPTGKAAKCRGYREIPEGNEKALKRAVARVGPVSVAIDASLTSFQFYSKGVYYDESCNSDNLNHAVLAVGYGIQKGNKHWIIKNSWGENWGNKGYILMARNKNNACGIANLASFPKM

Procathepsin L = Procathepsin L (Homo sapiens, UniProt P07711); assay: Inhibition of human recombinant cathepsin L
Chain of Procathepsin L (P07711 whole entry): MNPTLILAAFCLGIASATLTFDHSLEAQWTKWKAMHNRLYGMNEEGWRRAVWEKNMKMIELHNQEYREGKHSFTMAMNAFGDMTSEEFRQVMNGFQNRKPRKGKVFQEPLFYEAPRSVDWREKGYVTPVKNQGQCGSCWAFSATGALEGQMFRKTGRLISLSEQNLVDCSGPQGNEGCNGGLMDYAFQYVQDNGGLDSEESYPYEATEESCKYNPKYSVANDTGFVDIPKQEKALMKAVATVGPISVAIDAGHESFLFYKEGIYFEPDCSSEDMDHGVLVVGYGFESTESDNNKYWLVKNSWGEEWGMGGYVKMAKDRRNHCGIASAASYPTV

Cathepsin S = Cathepsin S (Homo sapiens, UniProt P25774); assay: Inhibition of human recombinant cathepsin S
Chain of Cathepsin S (P25774 whole entry): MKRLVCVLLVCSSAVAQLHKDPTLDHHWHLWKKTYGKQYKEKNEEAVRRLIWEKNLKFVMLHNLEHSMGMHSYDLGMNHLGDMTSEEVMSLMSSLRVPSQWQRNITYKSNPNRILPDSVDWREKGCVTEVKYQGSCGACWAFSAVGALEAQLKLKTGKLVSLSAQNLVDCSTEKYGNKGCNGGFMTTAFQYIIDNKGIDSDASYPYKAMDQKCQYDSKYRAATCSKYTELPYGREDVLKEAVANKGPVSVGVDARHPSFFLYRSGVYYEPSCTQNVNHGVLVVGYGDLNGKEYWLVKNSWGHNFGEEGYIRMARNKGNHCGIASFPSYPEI

[1] = Half life in rat at 4 uM/kg, iv and 10 uM/kg, po; format: ADME, organism-based; settings: in vivo
[2] = Clearance in rat at 4 uM/kg, iv and 10 uM/kg, po; format: ADME, organism-based; settings: in vivo

| Structure (SMILES) | pIC50 (Cathepsin K) | pIC50 (Procathepsin L) | pIC50 (Cathepsin S) | half-life [1] | clearance [2] |
| --- | --- | --- | --- | --- | --- |
| N#Cc1ncc(C(=O)NCCc2ccc(N3CCCC3)cc2)c(NC2CCCCC2)n1 | 6.12 | 5.29 | 5.64 |  |  |
| CC(C)(C)CNc1nc(C#N)ncc1C(=O)NCCc1ccc(OCCn2ccnc2)cc1 | 8.52 | 6.28 | 6.05 | 48 min | 462 mL/min/kg |
| COc1ccc(CCNC(=O)c2cnc(C#N)nc2NC2CCCCC2)cc1 | 7.66 | 6.77 | 6.15 |  |  |
| N#Cc1cccc(NC2CCCCC2)n1 | 6.00 |  |  |  |  |
| N#Cc1cncc(NC2CCCCC2)n1 | < 6.00 |  |  |  |  |
| N#Cc1cccc(NC2CCCCC2)c1 | < 6.00 |  |  |  |  |
| CN1CCN(c2ccc(CCNC(=O)c3cnc(C#N)nc3NC3CCCCC3)cc2)CC1 | 7.33 | 6.35 | 6.32 |  |  |
| COc1ccc(CCNC(=O)c2cnc(C#N)nc2NCC(C)(C)C)cc1 | > 8.52 | 6.47 | 5.80 |  |  |
| CN1CCN(c2ccc(CCNC(=O)c3cnc(C#N)nc3NCC(C)(C)C)cc2)CC1 | 7.60 | 5.41 | 5.51 |  |  |
| N#Cc1nccc(NC2CCCCC2)n1 | 6.77 |  |  |  |  |
| COc1cccc(CCNC(=O)c2cnc(C#N)nc2NCC(C)(C)C)c1 | > 8.52 | 5.92 | 6.05 |  |  |
| N#Cc1ccnc(NC2CCCCC2)n1 | 6.92 |  |  |  |  |
| CC(C)(C)CNc1nc(C#N)ncc1C(=O)NCCc1ccc(N2CCCC2)cc1 | 6.52 | < 5.00 | < 5.00 |  |  |
| CN1CCN(Cc2ccc(CCNC(=O)c3cnc(C#N)nc3NCC(C)(C)C)cc2)CC1 | 7.96 | 6.48 | 5.60 |  |  |
| CC(C)(C)CNc1nc(C#N)ncc1C(=O)NCCc1cccc(OCCn2ccnc2)c1 | 8.52 | 6.17 | 6.29 |  |  |
| COc1cccc(CCNC(=O)c2cnc(C#N)nc2NC2CCCCC2)c1 | 8.05 | 6.51 | 6.64 |  |  |
| N#Cc1ncc(C(=O)NCCc2ccccc2)c(NC2CCCCC2)n1 | 8.00 | 5.96 | 6.89 |  |  |
| CN1CCN(c2cccc(CCNC(=O)c3cnc(C#N)nc3NCC(C)(C)C)c2)CC1 | 7.96 | 6.09 | 5.74 |  |  |
| COc1ccc(CCNC(=O)c2cnc(C#N)nc2NCC(C)(C)C)cc1OCCn1ccnc1 | 7.51 | 6.24 | 5.59 |  |  |
| CN1CCC(Oc2ccc(CCNC(=O)c3cnc(C#N)nc3NCC(C)(C)C)cc2)CC1 | 7.89 | 5.77 | 5.00 |  |  |
